Experimental data reported in patent US20080161232A1, “C5a Receptor Antagonist” (JERINI AG, priority 2005, published 2008).
pIC50: −log10 of the molar value. Starred links: 1 amine or outer side, 2 acyl side, 3 side chain; linkers in the order of their positions; H or OH if unused. Positions of bridges follow the written chain, without caps; N, C: chain ends. Non-standard residues stand in square brackets, D forms with d. Residues, ends and D or L forms follow the SMILES beside them. *: point of attachment. X9 = COc1ccc(Cn2cnc(C[C@H](N[*:1])C(=O)[*:2])c2)cc1; Gly(N-(CH2)3N-pyrrolidone) = O=C(O)CNCCCN1CCCC1=O; Phe(4-amidino) = N=C(N)c1ccc(C[C@H](N)C(=O)O)cc1; Phe(3-Cl) = N[C@@H](Cc1cccc(Cl)c1)C(=O)O; Phe(4-Me) = Cc1ccc(C[C@H](N)C(=O)O)cc1; dPhe(2-Me) = Cc1ccccc1C[C@@H](N)C(=O)O; Bta = N[C@@H](Cc1csc2ccccc12)C(=O)O; Hydrocinnamoyl = O=C(CCc1ccccc1)*; Hyp = O=C(O)[C@@H]1C[C@@H](O)CN1; d(hLeu) = CC(C)CC[C@@H](N)C(=O)O; 4Pal = N[C@@H](Cc1ccncc1)C(=O)O; 2Thi = N[C@@H](Cc1cccs1)C(=O)O; dCha = N[C@H](CC1CCCCC1)C(=O)O; dChg = N[C@@H](C(=O)O)C1CCCCC1; NHPhenethyl = c1ccc(CCN*)cc1; Nle = CCCC[C@H](N)C(=O)O; Orn = NCCC[C@H](N)C(=O)O; Aze = O=C(O)[C@@H]1CCN1; Dab = NCC[C@H](N)C(=O)O; Nva = CCC[C@H](N)C(=O)O

target: T1, human C5aR(CD88) (Homo sapiens, UniProt P21730); test: Determination of the IC50 value in an enzyme release assay (functional assay, antagonistic activity); assay type: cell-based; conditions: antagonistic activity; IC50 group in enzyme release assay, RBL cells expressing human C5aR(CD88); read-out: activity (group)
T1 construct: expressed in transfected cells; host or cells: rat basophilic leukemia cells (RBL)
T1 sequence (P21730 1-350): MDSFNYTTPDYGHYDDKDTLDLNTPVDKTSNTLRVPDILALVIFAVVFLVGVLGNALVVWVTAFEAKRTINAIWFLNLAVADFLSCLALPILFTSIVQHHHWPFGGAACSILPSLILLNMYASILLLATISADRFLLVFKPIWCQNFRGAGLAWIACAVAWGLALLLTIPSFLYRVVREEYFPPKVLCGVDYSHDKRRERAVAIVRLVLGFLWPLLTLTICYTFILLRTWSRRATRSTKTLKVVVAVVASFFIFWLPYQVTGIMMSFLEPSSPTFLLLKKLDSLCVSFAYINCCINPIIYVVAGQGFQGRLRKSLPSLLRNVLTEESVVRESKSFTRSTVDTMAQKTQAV

SMILES | pIC50
CC(=O)N[C@@H](Cc1ccccc1)C(=O)N[C@@H](CCCN)C(=O)N1CCC[C@H]1C(=O)N[C@H](Cc1ccccc1C)C(=O)N[C@@H](Cc1csc2ccccc12)C(=O)N[C@@H](Cc1ccccc1)C(N)=O [Compound 308, Ac-Phe-Orn-Pro-omf-Bta-Phe-NH2] (Ac-F[Orn]P[dPhe(2-Me)][Bta]F-NH2) | 6.70 to 7.30
CC(=O)N[C@@H](Cc1ccccc1)C(=O)N[C@@H](CCCN)C(=O)N1CCC[C@H]1C(=O)N[C@H](CC1CCCCC1)C(=O)N[C@@H](Cc1csc2ccccc12)C(=O)N[C@@H](Cc1ccc(C)cc1)C(N)=O [Compound 260, Ac-Phe-Orn-Pro-cha-Bta-Pmf-NH2] (Ac-F[Orn]P[dCha][Bta][Phe(4-Me)]-NH2) | 7.30 to 7.70
CC(=O)N[C@@H](Cc1ccccc1)C(=O)N[C@@H](CCCN)C(=O)N1CC[C@H]1C(=O)N[C@H](CC1CCCCC1)C(=O)N[C@@H](Cc1csc2ccccc12)C(=O)NCCc1ccccc1 [Compound 73, Ac-Phe-Orn-Aze-cha-Bta-NH—CH2—CH2-Ph] (Ac-F[Orn][Aze][dCha][Bta]-NHPhenethyl) | 5.70 to 6.70
CCC[C@@H]1NC(=O)[C@H](Cc2c[nH]c3ccccc23)NC(=O)[C@@H](CCC(C)C)NC(=O)[C@@H]2C[C@@H](O)CN2C(=O)[C@@H](NC(=O)[C@@H](N)Cc2ccccc2)CCCNC1=O [Compound 370, H-Phe-[Orn-Hyp-hle-Trp-Nva]] (H-F[Orn][Hyp][d(hLeu)]W[Nva]; lactam 2-C) | 6.70 to 7.30
CCCC[C@@H]1NC(=O)[C@H](Cc2cccc(Cl)c2)NC(=O)[C@@H](CCC(C)C)NC(=O)[C@@H]2C[C@@H](OC)CN2C(=O)[C@@H](NC(=O)[C@@H](N)Cc2ccccc2)CCCNC1=O [Compound 354, H-Phe-[Orn-Hym-hle-Mcf-Nle]] (H-F[Orn][Hyp](Me)[d(hLeu)][Phe(3-Cl)][Nle]; lactam 2-C) | 6.70 to 7.30

Second part, the molecule after the results:

pIC50 | SMILES
6.70 to 7.30 | CC(=O)N[C@@H](Cc1ccccc1)C(=O)N[C@@H](CCCN)C(=O)N(CCCN1CCCC1=O)CC(=O)N[C@H](CC1CCCCC1)C(=O)N[C@@H](Cc1csc2ccccc12)C(=O)N[C@@H](Cc1ccccc1)C(N)=O [Compound 241, Ac-Phe-Orn-G30-cha-Bta-Phe-NH2] (Ac-F[Orn][Gly(N-(CH2)3N-pyrrolidone)][dCha][Bta]F-NH2)
7.30 to 7.70 | CC(=O)N[C@@H](Cc1ccccc1)C(=O)N[C@@H](CCN)C(=O)N1CC[C@H]1C(=O)N[C@H](CCC(C)C)C(=O)N[C@@H](Cc1csc2ccccc12)C(=O)N[C@@H](Cc1ccccc1)C(N)=O [Compound 214, Ac-Phe-Dab-Aze-hle-Bta-Phe-NH2] (Ac-F[Dab][Aze][d(hLeu)][Bta]F-NH2)
6.70 to 7.30 | NCCC[C@H](NC(=O)CCc1ccccc1)C(=O)N1CC[C@H]1C(=O)N[C@H](CC1CCCCC1)C(=O)N[C@@H](Cc1csc2ccccc12)C(=O)N[C@@H](Cc1ccccc1)C(N)=O [Compound 106, 3PP-Orn-Aze-cha-Bta-Phe-NH2] (Hydrocinnamoyl-[Orn][Aze][dCha][Bta]F-NH2)
6.70 to 7.30 | CC(=O)NCC(=O)N[C@@H](Cc1ccccc1)C(=O)N[C@@H](CCCN)C(=O)N1CC[C@H]1C(=O)N[C@@H](C(=O)N[C@@H](Cc1csc2ccccc12)C(=O)N[C@@H](Cc1ccccc1)C(N)=O)C1CCCCC1 [Compound 155, Ac-Gly-Phe-Orn-Aze-chg-Bta-Phe-NH2] (Ac-GF[Orn][Aze][dChg][Bta]F-NH2)
5.70 to 6.70 | CC(=O)N[C@@H](Cc1ccccc1)C(=O)N[C@H]1CCCNC(=O)[C@H](Cc2ccc(C(=N)N)cc2)NC(=O)[C@H](Cc2c[nH]c3ccccc23)NC(=O)[C@@H](CC2CCCCC2)NC(=O)[C@@H]2CCCN2C1=O [compound 21] (Ac-F[Orn]P[dCha]W[Phe(4-amidino)]; lactam 2-C)
7.30 to 7.70 | CC(=O)N[C@@H](Cc1ccccc1)C(=O)N[C@H]1CCCNC(=O)[C@H](Cc2cccs2)NC(=O)[C@H](Cc2c[nH]c3ccccc23)NC(=O)[C@@H](CC2CCCCC2)NC(=O)[C@@H]2CCCN2C1=O [Compound 38, Ac-Phe-[Orn-Pro-cha-Trp-Thi]] (Ac-F[Orn]P[dCha]W[2Thi]; lactam 2-C)
5.70 to 6.70 | COc1ccc(Cn2cnc(C[C@@H]3NC(=O)[C@H](Cc4c[nH]c5ccccc45)NC(=O)[C@@H](CC4CCCCC4)NC(=O)[C@@H]4CCCN4C(=O)[C@@H](NC(=O)[C@H](Cc4ccccc4)NC(C)=O)CCCNC3=O)c2)cc1 [compound 26] (Ac-F[Orn]P[dCha]W[X9]; lactam 2-C)

same assay, conditions: functional assay of example 11; noteworthy = IC50 less than 200 nM

SMILES | inhibitory activity (in words)
CC(=O)N[C@@H](Cc1ccccc1)C(=O)N[C@H]1CCCNC(=O)[C@H](Cc2ccncc2)NC(=O)[C@H](Cc2c[nH]c3ccccc23)NC(=O)[C@@H](CC2CCCCC2)NC(=O)[C@@H]2CCCN2C1=O [Ac-Phe-[Orn-Pro-cha-Trp-Ppa]] (Ac-F[Orn]P[dCha]W[4Pal]; lactam 2-C) | noteworthy inhibitory activity
CC(=O)N[C@@H](Cc1ccccc1)C(=O)N[C@H]1CCCNC(=O)[C@H](Cc2cccs2)NC(=O)[C@H](Cc2c[nH]c3ccccc23)NC(=O)[C@@H](CC2CCCCC2)NC(=O)[C@@H]2CCCN2C1=O [Compound 38, Ac-Phe-[Orn-Pro-cha-Trp-Thi]] (Ac-F[Orn]P[dCha]W[2Thi]; lactam 2-C) | without significant loss of activity

same assay, conditions: functional assay of example 11; noteworthy = IC50 less than 200 nM; listed as Ac-Phe-[Orn-Pro-cha-Trp-Thi]

SMILES | inhibitory activity (in words)
CC(=O)N[C@@H](Cc1ccccc1)C(=O)N[C@H]1CCCNC(=O)[C@H](Cc2cccs2)NC(=O)[C@H](Cc2c[nH]c3ccccc23)NC(=O)[C@@H](CC2CCCCC2)NC(=O)[C@@H]2CCCN2C1=O [Compound 38, Ac-Phe-[Orn-Pro-cha-Trp-Thi]] (Ac-F[Orn]P[dCha]W[2Thi]; lactam 2-C) | noteworthy inhibitory activity
